# Reference: patent US20090298891A1, “Methods of Treating or Preventing Cancer Using Pyridine Carboxaldehyde Pyridine Thiosemicarbazone Radiosensitizing Agents” (GOVERNMENT OF THE US, AS REPRESENTED BY THE SECRETADY OF …, priority 2005, published 2009)
# Legend:
# [1] = system: PSN1 (pancreatic carcinoma) cell line; assay: Clonogenic assay, PSN1; format: cell-based, human
# Method: (§1) Cell lines and treatment. Three human tumor cell lines were evaluated: a glioma (U251), a pancreatic carcinoma (PSN1) and a prostate carcinoma (DU145), each was obtained from the Developmental Therapeutics Program, DCTD, NCI. The cell lines were grown in RPMI 1640 (Life Technologies, Rockville, Md.) containing […] (5 mM) and 5% FBS and maintained at 37° C. in an atmosphere of 5% CO2 and 95% room air. Triapine (3-amino-2-carboxaldehyde-pyridine thiosemicarbazone), provided by Vion Pharmaceuticals of New Haven, Conn., was dissolved in dimethylsulfoxide to a stock concentration of 10 mM and stored at −20° C. Cultures were irradiated using a Pantak (Solon, Ohio) X-ray source at a dose rate of 1.55 Gy/minute.
# (§2) Clonogenic assay. Cell cultures were trypsinized to generate a single cell suspension and a specified number of cells were seeded into each well of 6-well tissue culture plates. In the first experiment, drug or vehicle control was, added at specified concentrations, and the plates were irradiated 16 hours later. Immediately after irradiation, the growth media was aspirated, and fresh media was added. In the second experiment, cells were seeded, and irradiated 6 hours after seeding. Immediately after irradiation, the cells were treated with the specified concentration of drug. After 16 hours of exposure, drug was aspirated, and replaced with fresh media. Ten to twelve days after seeding, colonies were stained with crystal violet, and the number of colonies containing at least 50 cells was determined and the surviving fractions were calculated. Survival curves were generated after normalizing for the cytotoxicity generated by drug alone. Data presented are the mean±SEM from at least three independent experiments. Radiation dose enhancement factors (DEFs) represent the ratio of radiation dose required to achieve 10% survival in the control cells and the drug-treated cells.
# [2] = system: DU145 (prostate carcinoma) cell line; assay: Clonogenic assay, DU145; format: cell-based, human
# Method: as §1, §2
# [3] = system: U251 (human glioma) cell line; assay: Clonogenic assay, U251; format: cell-based
# Method: as §1, §2
# [4] = system: DNA synthesis activity in U251 cells; assay: DNA synthesis assay (BrdU incorporation); format: cell-based, human; conditions: after 16 hours of Triapine exposure
# Method: DNA Synthesis Assay. DNA synthesis was quantified as an indirect measure of ribonucleotide reductase activity. A 5-bromo-2′-deoxyuridine (BrdU) incorporation assay kit (#1669915) produced by Roche Applied Science (Mannheim, Germany) was used. Cells were seeded in wells of a black wall 96-well plate and allowed to incubate for 24 hours. Drug was added, and after 16 hours of exposure, 10 μM BrdU pulses were added hourly for 2 hours, according to manufacturer's instructions. After fixation, an anti-BrdU peroxidase antibody conjugate was applied for 90 minutes at room temperature. The conjugate was then rinsed three times, and luminol was added. Chemiluminescence was detected with a Wallac 1420 multilabel counter (Perkin Elmer Life Sciences, Turku, Finland), and data was exported for off-line analysis. Triplicate samples were run for three independent experiments; data is presented as the mean of three experiments±SEM.
# U251 cells = assay: Cell cycle phase analysis (flow cytometry); format: cell-based, human; conditions: 16 hours of Triapine exposure (5 μM)
# Method: Cell Cycle Phase Analysis. Cell cycle phase distribution was analyzed using flow cytometry. Cells were seeded in T75 flasks at subconfluent density and exposed to Triapine, or vehicle for 16 hours, at which time cells were fixated and stained with propidium iodide for flow cytometry analysis at the Clinical Services Program at the National Cancer Institute-Frederick. A two-tailed, paired t-test was performed on the data from the replicated analysis.
# PSN1 tumors = assay: In vivo tumor growth delay assay, PSN1 xenografts; set-up: species or system mice
# Method: (§3) In Vivo Tumor Growth Delay Assay. Male 6 week old athymic nude mice (NCr nu/nu) were used in these studies. Mice, housed in filter-topped cages, were provided autoclaved feed and hyperchlorinated water ad libitum. U251 or PSN1 tumor cells were implanted subcutaneously in the hind leg. Irradiation was performed using a Pantak (Solon, Ohio) irradiator with animals restrained in a custom lead jig, which allowed for the localized irradiation of tumors at the base of the tail. When tumors reached 177 mm^3 (7×7 mm) Triapine (30-60 mg/kg) was delivered by intraperitoneal injection and 6 h later tumors were irradiated with a single dose of 4 or 5 Gy. To obtain growth curves, perpendicular diameter measurements of each tumor were collected every 3 days with calipers, and the volumes were calculated using the formula (L×W×W)/2. Tumors were followed until the group's tumors were greater than 1500 mm^3. Specific tumor growth delay was calculated as the number of days for the treated tumors to grow to 1400 mm^3 minus the number of days for the control group to reach the same size. Each experimental group contained 10 mice and the untreated group contained 15 mice. All animal studies were conducted in accordance with the principles and procedures outlined in the U.S.P.H.S. Guide for the Care and Use of Laboratory Animals in an AAALAC-approved facility under an approved animal protocol.
# In vivo activity of Triapine in conjunction with radiation was determined through growth delays in mice with subcutaneous human tumor xenografts. Based on the above described in vitro results, xenografts of PSN1 and U251 were evaluated in vivo. Triapine (40 mg/kg) was given 6 hours prior to a single radiation dose (4 or 5 Gy). After 3 volumetric doublings of the PSN1 tumors, Triapine alone yielded a 1.6 day growth delay, and radiation caused a 9.8 day growth delay. […] See, FIG. 8 (U251) and FIG. 9 (PSN1) for a graph of tumor growth delay data.
# U251 tumors = assay: In vivo tumor growth delay assay, U251 xenografts; set-up: species or system mice; conditions: combination of Triapine and radiation
# Method: as §3, with “Each experimental group contained 10 mice and the untreated group contained 15 mice. All animal studies were conducted in accordance with the principles and procedures outlined in the U.S.P.H.S. Guide for the Care and Use of Laboratory Animals in an AAALAC-approved facility under an approved animal protocol.” left out
# In vivo activity of Triapine in conjunction with radiation was determined through growth delays in mice with subcutaneous human tumor xenografts. Based on the above described in vitro results, xenografts of PSN1 and U251 were evaluated in vivo. […]
structure (smiles),measurement,setting,value
"NC(=S)N/N=C/c1ncccc1N [Triapine, 3-amino-2-carboxaldehyde-pyridine thiosemicarbazone]",Survival following 16 hours of Triapine exposure,"[1]; PSN1, 3 μM, drug alone",33%
same,"radiosensitization / DEF, Triapine after irradiation","[1]; PSN1, Triapine for 16 hours after irradiation",DEFs similar to those obtained when cells were exposed prior to irradiation
same,dose enhancement factor (DEF),"[1]; PSN1, Triapine given prior to radiation, ratio of radiation dose for 10% survival",1.64
same,Survival following 16 hours of Triapine exposure,"[2]; DU145, 5 μM, drug alone",68%
same,"radiosensitization / DEF, Triapine after irradiation","[2]; DU145, Triapine for 16 hours after irradiation",DEFs similar to those obtained when cells were exposed prior to irradiation
same,dose enhancement factor (DEF),"[2]; DU145, Triapine given prior to radiation, ratio of radiation dose for 10% survival",2.05
same,Survival following 16 hours of Triapine exposure,"[3]; U251, 5 μM, drug alone",53%
same,"radiosensitization / DEF, Triapine after irradiation","[3]; U251, Triapine for 16 hours after irradiation",DEFs similar to those obtained when cells were exposed prior to irradiation
same,dose enhancement factor (DEF),"[3]; U251, Triapine given prior to radiation, ratio of radiation dose for 10% survival",1.50
same,DNA synthesis,[4],less than 5 % of control
same,time for DNA synthesis to return to control levels,[4],7 h
same,percentage of cells in G1,U251 cells,increased
same,percentage of cells in G2/M,U251 cells,decreased
same,growth delay,"PSN1 tumors; Triapine alone, 40 mg/kg intraperitoneal, after 3 volumetric doublings of PSN1 tumors",1.6 days
same,growth delay,"PSN1 tumors; combination of Triapine (40 mg/kg, 6 hours prior) and single radiation dose (4 or 5 Gy), PSN1 tumors",20.9 days
same,DEF (in vivo),"PSN1 tumors; combination of Triapine and radiation, PSN1 tumors",2.0
same,growth delay / DEF effect of combination,U251 tumors,a similar effect was observed
